Test results from patent publication US20240343704A1, “HALO-SUBSTITUTED AMINO PYRIDINE COMPOUNDS AS INHIBITORS OF THE HAEMATOPOIETIC PROGENITOR KINASE 1 (HPK1)” (priority 2021, published 2024).
Like-named read-outs stand apart in the source and are kept apart here.

How the values were obtained:
Lck (h) = Lck (h) (Homo sapiens, UniProt P06239); assay: Lck Human  Kinase Enzymatic Radiometric Assay; assay type: biochemical
In short: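 Substrate 33P-incorporation measured by scintillation counting after spotting on P30 filtermat and phosphoric acid washes. Human Lck reacted 40 min at RT in 50 mM Tris pH 7.5 with 10 mM MgAcetate, [gamma-33P]-ATP, 250 uM Cdc2 peptide, 0.1 mM EGTA and 0.1 mM Na3VO4.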

[1] = target: T1, Recombinant (1-346) HPK1 (h) (Homo sapiens, UniProt Q92918); assay: HPK1 Human STE Kinase Enzymatic Radiometric Assay; assay type: biochemical
T1 construct: Recombinant (1-346) HPK1 (h) is incubated with 8 mM MOPS pH 7.0
T1 sequence (Q92918 1-346): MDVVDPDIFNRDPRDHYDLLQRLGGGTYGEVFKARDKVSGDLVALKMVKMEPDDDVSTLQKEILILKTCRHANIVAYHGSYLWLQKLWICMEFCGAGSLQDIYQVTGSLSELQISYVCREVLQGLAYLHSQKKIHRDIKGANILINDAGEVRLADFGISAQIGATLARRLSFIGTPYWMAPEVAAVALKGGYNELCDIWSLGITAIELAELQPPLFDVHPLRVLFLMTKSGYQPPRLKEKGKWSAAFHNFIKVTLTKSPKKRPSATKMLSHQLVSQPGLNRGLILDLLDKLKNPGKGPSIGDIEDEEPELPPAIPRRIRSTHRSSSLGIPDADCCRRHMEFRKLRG
Experimental: A stock solution of 10 mM of test compound is prepared in DMSO. The compound plate was prepared by 3-fold and 9-point serial dilutions. […] The reaction is initiated by The addition of the Mg/ATP mix. After incubation for 40 minutes at RT, the reaction is stopped by the addition of phosphoric acid to a concentration of 0.5%.

Chain of Lck (h) (P06239 whole entry): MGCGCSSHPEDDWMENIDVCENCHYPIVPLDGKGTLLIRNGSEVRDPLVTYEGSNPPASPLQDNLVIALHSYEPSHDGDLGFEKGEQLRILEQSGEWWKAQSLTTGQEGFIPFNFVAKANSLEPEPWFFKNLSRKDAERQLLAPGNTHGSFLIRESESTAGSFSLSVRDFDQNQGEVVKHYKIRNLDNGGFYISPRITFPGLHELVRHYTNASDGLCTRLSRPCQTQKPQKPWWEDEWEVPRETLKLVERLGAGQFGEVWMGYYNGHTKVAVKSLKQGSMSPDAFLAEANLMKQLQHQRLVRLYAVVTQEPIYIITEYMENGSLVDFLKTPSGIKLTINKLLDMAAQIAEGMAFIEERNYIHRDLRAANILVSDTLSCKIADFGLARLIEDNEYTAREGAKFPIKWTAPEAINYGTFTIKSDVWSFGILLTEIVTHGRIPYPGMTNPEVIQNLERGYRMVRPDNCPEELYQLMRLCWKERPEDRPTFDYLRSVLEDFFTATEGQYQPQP

SMILES: Nc1nc(F)c(-c2ccc(O[C@@H]3CCCNC3)cc2)cc1-c1cc2c(cc1F)C(=O)NCC2 [I-180, (R)-6-(2-amino-6-fluoro-5-(4-(piperidin-3-yloxy)phenyl)pyridin-3-yl)-7-fluoro-3,4-dihydroisoquinolin-1(2H)-one]
- IC50 (Lck (h); read-out: Lck IC50 nM Range*): > 1000 nM
- IC50 ([1]; read-out: HPK1 IC50 nM Range*): 11 to 100 nM

SMILES: Nc1nc(F)c(-c2ccc3c(c2)COC2(CCNCC2)O3)cc1-c1ccc2c(c1)CCNC2=O [I-181, 6-(2-amino-6-fluoro-5-(4H-spiro[benzo[d][1,3]dioxine-2,4′-piperidin]-6-yl)pyridin-3-yl)-3,4-dihydroisoquinolin-1(2H)-one]
- IC50 (Lck (h)): > 1000 nM
- IC50 [1]: 0.1 to 10 nM

SMILES: Nc1nc(F)c(-c2ccc3c(c2)C(=O)CC2(CCNCC2)O3)cc1-c1ccc2c(c1)CCNC2=O [I-182, 6-(6-amino-2-fluoro-5-(1-oxo-1,2,3,4-tetrahydroisoquinolin-6-yl)pyridin-3-yl)spiro[chromane-2,4′-piperidin]-4-one 2,2,2-trifluoroacetate]
- IC50 (Lck (h); read-out: Lck IC50 nM Range*): > 1000 nM
- IC50 ([1]; read-out: HPK1 IC50 nM Range*): 0.1 to 10 nM

SMILES: Nc1nc(F)c(-c2ccc3c(c2)CCC2(CCNCC2)O3)cc1-c1ccc2c(c1)CCNC2=O [I-183, 6-(2-amino-6-fluoro-5-(spiro[chromane-2,4′-piperidin]-6-yl)pyridin-3-yl)-3,4-dihydroisoquinolin-1(2H)-one]
- IC50 (Lck (h); read-out: Lck IC50 nM Range*): > 1000 nM
- IC50 ([1]; read-out: HPK1 IC50 nM Range*): 0.1 to 10 nM

SMILES: N#Cc1cc(-c2cc(-c3ccc4c(c3)CCNC4=O)c(N)nc2F)ccc1OC1CCNCC1 [I-184, 5-(6-amino-2-fluoro-5-(1-oxo-1,2,3,4-tetrahydroisoquinolin-6-yl)pyridin-3-yl)-2-(piperidin-4-yloxy)benzonitrile]
- IC50 (Lck (h); read-out: Lck IC50 nM Range*): > 1000 nM
- IC50 ([1]; read-out: HPK1 IC50 nM Range*): 11 to 100 nM

SMILES: Nc1nc(F)c(-c2ccc(N3CCNCC3)c(C(F)(F)F)c2)cc1-c1ccc2c(c1)CCNC2=O [I-185, 6-(2-amino-6-fluoro-5-(4-(piperazin-1-yl)-3-(trifluoromethyl)phenyl)pyridin-3-yl)-3,4-dihydroisoquinolin-1(2H)-one]
- IC50 (Lck (h); read-out: Lck IC50 nM Range*): > 1000 nM
- IC50 ([1]; read-out: HPK1 IC50 nM Range*): 0.1 to 10 nM

SMILES: Nc1nc(F)c(-c2ccc(OC3CCN(CC(F)(F)F)CC3)cc2)cc1-c1ccc2c(c1)CCNC2=O [I-186, 6-(2-amino-6-fluoro-5-(4-((1-(2,2,2-trifluoroethyl)piperidin-4-yl)oxy)phenyl)pyridin-3-yl)-3,4-dihydroisoquinolin-1(2H)-one]
- IC50 (Lck (h); read-out: Lck IC50 nM Range*): > 1000 nM
- IC50 ([1]; read-out: HPK1 IC50 nM Range*): 11 to 100 nM

SMILES: Nc1nc(F)c(-c2ccc(OC3CCN(CCC(F)(F)F)CC3)cc2)cc1-c1ccc2c(c1)CCNC2=O [I-187, 6-(2-amino-6-fluoro-5-(4-((1-(3,3,3-trifluoropropyl)piperidin-4-yl)oxy)phenyl)pyridin-3-yl)-3,4-dihydroisoquinolin-1(2H)-one]
- IC50 (Lck (h); read-out: Lck IC50 nM Range*): > 1000 nM
- IC50 ([1]; read-out: HPK1 IC50 nM Range*): 0.1 to 10 nM

SMILES: Nc1nc(F)c(-c2ccc(OC3CCN(CCCC(F)(F)F)CC3)cc2)cc1-c1ccc2c(c1)CCNC2=O [I-188, 6-(2-amino-6-fluoro-5-(4-((1-(4,4,4-trifluorobutyl)piperidin-4-yl)oxy)phenyl)pyridin-3-yl)-3,4-dihydroisoquinolin-1(2H)-one]
- IC50 (Lck (h); read-out: Lck IC50 nM Range*): > 1000 nM
- IC50 ([1]; read-out: HPK1 IC50 nM Range*): 0.1 to 10 nM

SMILES: COCCN1CCC(Oc2ccc(-c3cc(-c4ccc5c(c4)CCNC5=O)c(N)nc3F)cc2)CC1 [I-189, 6-(2-amino-6-fluoro-5-(4-((1-(2-methoxyethyl)piperidin-4-yl)oxy)phenyl)pyridin-3-yl)-3,4-dihydroisoquinolin-1(2H)-one]
- IC50 (Lck (h); read-out: Lck IC50 nM Range*): > 1000 nM
- IC50 ([1]; read-out: HPK1 IC50 nM Range*): 0.1 to 10 nM

SMILES: CC(=O)N1CCC2(CC1)OCc1cc(-c3cc(-c4ccc5c(c4)CCNC5=O)c(N)nc3F)ccc1O2 [I-191, 6-(5-(1′-acetyl-4H-spiro[benzo[d][1,3]dioxine-2,4′-piperidin]-6-yl)-2-amino-6-fluoropyridin-3-yl)-3,4-dihydroisoquinolin-1(2H)-one]
- IC50 (Lck (h)): > 1000 nM
- IC50 [1]: 0.1 to 10 nM

SMILES: CC(=O)N1CCC2(CC1)CC(=O)c1cc(-c3cc(-c4ccc5c(c4)CCNC5=O)c(N)nc3F)ccc1O2 [I-192, 1′-acetyl-6-(6-amino-2-fluoro-5-(1-oxo-1,2,3,4-tetrahydroisoquinolin-6-yl)pyridin-3-yl)spiro[chromane-2,4′-piperidin]-4-one]
- IC50 (Lck (h); read-out: Lck IC50 nM Range*): > 1000 nM
- IC50 ([1]; read-out: HPK1 IC50 nM Range*): 0.1 to 10 nM

SMILES: CC(=O)N1CCC2(CCc3cc(-c4cc(-c5ccc6c(c5)CCNC6=O)c(N)nc4F)ccc3O2)CC1 [I-193, 6-(5-(1′-acetylspiro[chromane-2,4′-piperidin]-6-yl)-2-amino-6-fluoropyridin-3-yl)-3,4-dihydroisoquinolin-1(2H)-one]
- IC50 (Lck (h); read-out: Lck IC50 nM Range*): > 1000 nM
- IC50 ([1]; read-out: HPK1 IC50 nM Range*): 0.1 to 10 nM

SMILES: CC(=O)N1CCC(Oc2ccc(-c3cc(-c4ccc5c(c4)CCNC5=O)c(N)nc3F)cc2C#N)CC1 [I-194, 2-((1-acetylpiperidin-4-yl)oxy)-5-(6-amino-2-fluoro-5-(1-oxo-1,2,3,4-tetrahydroisoquinolin-6-yl)pyridin-3-yl)benzonitrile]
- IC50 (Lck (h); read-out: Lck IC50 nM Range*): > 1000 nM
- IC50 ([1]; read-out: HPK1 IC50 nM Range*): 0.1 to 10 nM

SMILES: Nc1nc(F)c(-c2ccc3c(c2)COC2(CCN(CC(F)(F)F)CC2)O3)cc1-c1ccc2c(c1)CCNC2=O [I-195, 6-(2-amino-6-fluoro-5-(1′-(2,2,2-trifluoroethyl)-4H-spiro[benzo[d][1,3]dioxine-2,4′-piperidin]-6-yl)pyridin-3-yl)-3,4-dihydroisoquinolin-1(2H)-one]
- IC50 (Lck (h); read-out: Lck IC50 nM Range*): > 1000 nM
- IC50 ([1]; read-out: HPK1 IC50 nM Range*): 11 to 100 nM

SMILES: Nc1nc(F)c(-c2ccc3c(c2)C(=O)CC2(CCN(CC(F)(F)F)CC2)O3)cc1-c1ccc2c(c1)CCNC2=O [I-196, 6-(6-amino-2-fluoro-5-(1-oxo-1,2,3,4-tetrahydroisoquinolin-6-yl)pyridin-3-yl)-1′-(2,2,2-trifluoroethyl)spiro[chromane-2,4′-piperidin]-4-one]
- IC50 (Lck (h); read-out: Lck IC50 nM Range*): > 1000 nM
- IC50 ([1]; read-out: HPK1 IC50 nM Range*): 0.1 to 10 nM

SMILES: Nc1nc(F)c(-c2ccc3c(c2)CCC2(CCN(CC(F)(F)F)CC2)O3)cc1-c1ccc2c(c1)CCNC2=O [I-197, 6-(2-amino-6-fluoro-5-(1′-(2,2,2-trifluoroethyl)spiro[chromane-2,4′-piperidin]-6-yl)pyridin-3-yl)-3,4-dihydroisoquinolin-1(2H)-one]
- IC50 (Lck (h); read-out: Lck IC50 nM Range*): > 1000 nM
- IC50 ([1]; read-out: HPK1 IC50 nM Range*): 11 to 100 nM

SMILES: N#Cc1cc(-c2cc(-c3ccc4c(c3)CCNC4=O)c(N)nc2F)ccc1OC1CCN(CC(F)(F)F)CC1 [I-198, 5-(6-amino-2-fluoro-5-(1-oxo-1,2,3,4-tetrahydroisoquinolin-6-yl)pyridin-3-yl)-2-((1-(2,2,2-trifluoroethyl)piperidin-4-yl)oxy)benzonitrile]
- IC50 (Lck (h); read-out: Lck IC50 nM Range*): > 1000 nM
- IC50 ([1]; read-out: HPK1 IC50 nM Range*): 11 to 100 nM

SMILES: CC(=O)N1CCC(Oc2ccc(-c3cc(-c4ccc5c(c4)CCNC5=O)c(N)nc3F)cc2C(F)(F)F)CC1 [I-199, 6-(5-(4-((1-acetylpiperidin-4-yl)oxy)-3-(trifluoromethyl)phenyl)-2-amino-6-fluoropyridin-3-yl)-3,4-dihydroisoquinolin-1(2H)-one]
- IC50 (Lck (h); read-out: Lck IC50 nM Range*): > 1000 nM
- IC50 ([1]; read-out: HPK1 IC50 nM Range*): 11 to 100 nM

SMILES: CC(=O)N1CCN(c2ccc(-c3cc(-c4ccc5c(c4)CCNC5=O)c(N)nc3F)cc2C(F)(F)F)CC1 [I-200, 6-(5-(4-(4-acetylpiperazin-1-yl)-3-(trifluoromethyl)phenyl)-2-amino-6-fluoropyridin-3-yl)-3,4-dihydroisoquinolin-1(2H)-one]
- IC50 (Lck (h); read-out: Lck IC50 nM Range*): > 1000 nM
- IC50 ([1]; read-out: HPK1 IC50 nM Range*): 0.1 to 10 nM

SMILES: Nc1nc(F)c(-c2ccc(OC3CCN(CC(F)(F)F)CC3)c(C(F)(F)F)c2)cc1-c1ccc2c(c1)CCNC2=O [I-201, 6-(2-amino-6-fluoro-5-(4-((1-(2,2,2-trifluoroethyl)piperidin-4-yl)oxy)-3-(trifluoromethyl)phenyl)pyridin-3-yl)-3,4-dihydroisoquinolin-1(2H)-one]
- IC50 (Lck (h); read-out: Lck IC50 nM Range*): > 1000 nM
- IC50 ([1]; read-out: HPK1 IC50 nM Range*): 101 to 1000 nM

SMILES: Nc1nc(F)c(-c2ccc(N3CCN(CC(F)(F)F)CC3)c(C(F)(F)F)c2)cc1-c1ccc2c(c1)CCNC2=O [I-202, 6-(2-amino-6-fluoro-5-(4-(4-(2,2,2-trifluoroethyl)piperazin-1-yl)-3-(trifluoromethyl)phenyl)pyridin-3-yl)-3,4-dihydroisoquinolin-1(2H)-one]
- IC50 (Lck (h); read-out: Lck IC50 nM Range*): > 1000 nM
- IC50 ([1]; read-out: HPK1 IC50 nM Range*): 11 to 100 nM

SMILES: Nc1nc(F)c(-c2ccc(OC3CCN(C(=O)C4CC4)CC3)cc2)cc1-c1ccc2c(c1)CCNC2=O [I-203, 6-(2-amino-5-(4-((1-(cyclopropanecarbonyl)piperidin-4-yl)oxy)phenyl)-6-fluoropyridin-3-yl)-3,4-dihydroisoquinolin-1(2H)-one]
- IC50 (Lck (h); read-out: Lck IC50 nM Range*): > 1000 nM
- IC50 ([1]; read-out: HPK1 IC50 nM Range*): 0.1 to 10 nM

SMILES: Nc1nc(F)c(-c2ccc3c(c2)OCCCO3)cc1-c1ccc2c(c1)CCNC2=O [I-204, 6-(2-amino-5-(3,4-dihydro-2H-benzo[b][1,4]dioxepin-7-yl)-6-fluoropyridin-3-yl)-3,4-dihydroisoquinolin-1(2H)-one]
- IC50 (Lck (h); read-out: Lck IC50 nM Range*): > 1000 nM
- IC50 ([1]; read-out: HPK1 IC50 nM Range*): 0.1 to 10 nM

SMILES: Nc1nc(F)c(-c2ccc3c(c2)OCCCO3)cc1-c1cc2c(cc1F)C(=O)NCC2 [I-205, 6-(2-amino-5-(3,4-dihydro-2H-benzo[b][1,4]dioxepin-7-yl)-6-fluoropyridin-3-yl)-7-fluoro-3,4-dihydroisoquinolin-1(2H)-one]
- IC50 (Lck (h); read-out: Lck IC50 nM Range*): > 1000 nM
- IC50 ([1]; read-out: HPK1 IC50 nM Range*): 0.1 to 10 nM

SMILES: CN1CCCN(S(=O)(=O)c2ccc(-c3cc(-c4ccc5c(c4)CCNC5=O)c(N)nc3F)cc2)CC1 [I-206, 6-(2-amino-6-fluoro-5-(4-((4-methyl-1,4-diazepan-1-yl)sulfonyl)phenyl)pyridin-3-yl)-3,4-dihydroisoquinolin-1(2H)-one]
- IC50 (Lck (h); read-out: Lck IC50 nM Range*): > 1000 nM
- IC50 ([1]; read-out: HPK1 IC50 nM Range*): 0.1 to 10 nM
